Measured values from paper PMC10059905, “The Bioactivity of Xylene, Pyridine, and Pyrazole Aza Macrocycles against Three Representative Leishmania Species” (Pharmaceutics, 2023).

Columns and labels:
Assay type in all cases: cell-based
[1] = test system: L. infantum promastigote forms; test: In vitro activity against promastigote forms; settings: for Selectivity Index Promastigote Forms: J774.2 Macrophage IC50/Parasite IC50; for IC50: Leishmania infantum, 48 h, 27 °C, means of three separate experiments, read-out: Compound IC50 Promastigote Forms
Description: (§1) Three Leishmania species were studied, each one as a pathogenic agent for each clinical form: L. donovani for VL, L. infantum for CL, and L. braziliensis for ML.
(§2) In order to perform this experiment, promastigotes were harvested in 24-well microplates and different drug concentrations were added in order to reach 12.5, 25, 50, and 100 µM and maintained at 27 °C for 48 h. They were counted after that time was elapsed in a Neubauer haemocytrometric chamber.

[2] = test system: L. donovani promastigote forms; test: In vitro activity against promastigote forms; settings: for IC50: Leishmania donovani, 48 h, 27 °C, means of three separated experiments, read-out: Compound IC50 Promastigote Forms; for Selectivity Index Promastigote Forms: J774.2 Macrophage IC50/Parasite IC50
Description: as §1, §2

[3] = test system: L. braziliensis promastigote forms; test: In vitro activity against promastigote forms; settings: for IC50: Leishmania braziliensis, 48 h, 27 °C, means of three separate experiments, read-out: Compound IC50 Promastigote Forms; for Selectivity Index Promastigote Forms: J774.2 Macrophage IC50/Parasite IC50
Description: as §1, §2

[4] = test system: J774.2 macrophage cell line; test: Macrophage cytotoxicity; settings: Mus musculus; J774.2 macrophages; means of three separate experiments; read-out: Macrophage Toxicity IC50
Text: Macrophages are cells naturally infected by Leishmania parasites. For that reason, they were used as host cell models, specifically the J774.2 macrophage cell line [European Collection of Authenticated Cell Cultures (ECACC) number 91051511]. Cells were used to test the cytotoxicity of the new compound (establishing IC50 via testing different drug concentrations on cells) and they were used for parasite infectivity assays.

[5] = test system: L. donovani amastigote forms; test: In vitro activity against amastigote forms in J774.2 macrophages
Description: (§3) A similar method was used for the amastigote assay. First, J774.2 macrophages were harvested in 24-well microplates with round coverslips at the bottom, where cells will attach. Once cells are fixated, they are infected with promastigotes (10 per each macrophage cell) and compounds were added to reach the same final concentrations as in the previous experiment. After one day, promastigotes transform into amastigotes and microplates are maintained for two days at 37 °C. Once that time is elapsed, coverslips are collected and fixated to a microscope slide and dyed with Giemsa. Amastigotes are then counted using a microscope from a total of 200 random macrophages.

L. donovani = test: Metabolite excretion (1H-NMR of supernatants); settings: IC25, 72 h, vs untreated
Text: (§4) Active compounds can trigger metabolic alterations within parasite mitochondria. Those alterations can be proven by observing alterations in the excreted metabolites quantity. Trypanosomatids excrete different metabolites to the medium in order to get rid of the carbonate skeleton instead of oxidizing glucose to CO2 and water as vertebrates do. Each metabolite is produced in a certain area of the mitochondrion and by a certain enzyme, thus, it can be inferred that these particular zones or enzymes are being affected by drug action. For this experiment, cultures of each species with an initial concentration of 5 × 10^5 cells/mL were stored at 27 °C for 72 h with IC25 as the test dosage. After this time elapsed, cultures were centrifuged at 400× g for 10 min and supernatants were collected and examined by ^1H-NMR.

[6] = test system: L. infantum amastigote forms; test: In vitro activity against amastigote forms in J774.2 macrophages
Description: as §3

[7] = test system: L. braziliensis amastigote forms; test: as above; settings: for Selectivity Index Amastigote Forms: J774.2 Macrophage IC50/Parasite IC50; for IC50: Leishmania braziliensis, in J774.2 macrophages, means of three separate experiments, read-out: Compound IC50 Amastigote Forms
Description: as §3

L. braziliensis [8] = test: Metabolite excretion (1H-NMR of supernatants); settings: IC25, 72 h, vs untreated
Text: as §4

L. infantum = test: Metabolite excretion (1H-NMR of supernatants); settings: IC25, 72 h, vs untreated
Text: as §4

L. braziliensis [9] = test: Infectivity assay in J774.2 macrophages; settings: test dosage IC25, 10 days
Text: Following a similar method as the described one in the amastigote experiment, macrophages were harvested and infected with promastigotes in their stationary phase. The test dosage was IC25 for this experiment. The coverslips were collected every 2 days for 10 days and counted in order to determine if drugs affected promastigote infection and amastigote division within the cells by measuring the infection rate (percentage of infected cells) and amastigote number per infected cell.

[10] = J774.2 Macrophage IC50/Parasite IC50

Structure (SMILES) | Selectivity Index Promastigote Forms [1] | IC50 [1] [µM] | IC50 [2] [µM] | IC50 [3] [µM] | IC50 [4] [µM] | Selectivity Index Promastigote Forms [2] | Selectivity Index Promastigote Forms [3] | other results
c1cc2nc(c1)CNCCCNCCNCCNCCNCCCNC2 [Py32223] | 1 | 93.4 ± 3.7 | 1000 ± 78.4 | 442 ± 5.8 | 57.7 ± 1.9 | – | – | –
c1c2n[nH]c1CNCCCNCCCNCCCNC2 [PZ333] | 14 | 70 ± 0.7 | 1.4 ± 0.3 | 15.7 ± 0.5 | 985 ± 72.8 | 704 | 63 | Selectivity Index Amastigote Forms [5, 10]: 579; IC50 ([5]; Leishmania donovani, in J774.2 macrophages, means of three separated experiments, read-out: Compound IC50 Amastigote Forms): 1.7 ± 0.5 µM; Acetate production and excretion variation (L. donovani): 33.66%; D-lactate production and excretion variation (L. donovani): 29.85%; L-alanine production and excretion variation (L. donovani): 32.65%; Pyruvate production and excretion variation (L. donovani): 37.88%; Succinate production and excretion variation (L. donovani): 42.10%
c1c2n[nH]c1CNCCNCCCNCCNC2 [PZ232] | 52 | 13 ± 0.4 | 25 ± 0.8 | 5.8 ± 0.2 | 674 ± 66.3 | 27 | 116 | Selectivity Index Amastigote Forms [6, 10]: 138; IC50 ([6]; Leishmania infantum, in J774.2 macrophages, means of three separate experiments, read-out: Compound IC50 Amastigote Forms): 4.9 ± 0.4 µM; Selectivity Index Amastigote Forms [7]: 421; IC50 [7]: 1.6 ± 0.6 µM; Acetate production and excretion variation (L. braziliensis [8]): -38.64%; D-lactate production and excretion variation (L. braziliensis [8]): -38.98%; L-alanine production and excretion variation (L. braziliensis [8]): -37.91%; Pyruvate production and excretion variation (L. braziliensis [8]): -35.69%; Succinate production and excretion variation (L. braziliensis [8]): -37.83%; Acetate production and excretion variation (L. infantum): -11.80%; D-lactate production and excretion variation (L. infantum): -11.58%; L-alanine production and excretion variation (L. infantum): -13.15%; Pyruvate production and excretion variation (L. infantum): -14.03%; Succinate production and excretion variation (L. infantum): -16.36%; Amastigote number/infected cell, percentage in plot key (reduction vs control) (L. braziliensis [9]): 32.4%
c1cc2cc(c1)CNCCNCCCNCCNC2 [mB232] | 3 | 205 ± 30.7 | 171 ± 10.4 | 91.7 ± 3.7 | 667 ± 88.5 | 4 | 7 | –
c1cc2nc(c1)CNCCCNCCCCNC2 [Py34] | 10 | 56.7 ± 2.6 | 28.4 ± 0.6 | 29.2 ± 0.8 | 569 ± 45.8 | 20 | 19 | –
c1cc2cc(c1)CNCCCNCCNCCCNC2 [mB323, 3,7,10,14 Tetraaza-1(2,6)-benzenacyclopentadecaphane] | 4 | 95.6 ± 4.8 | 158 ± 7.3 | 2.3 ± 0.5 | 428 ± 22.6 | 3 | 186 | Selectivity Index Amastigote Forms [7]: 25; IC50 [7]: 17.1 ± 1.1 µM
c1cc2nc(c1)CNCCCNCCNCCNCCCNC2 [Py3223] | 1 | 192 ± 5.8 | 52.5 ± 2.1 | 291 ± 3.8 | 165 ± 4.9 | 3 | 1 | –
